Test [1] concerns the target PD-L1/CHO-K1 cells (Homo sapiens (Human), UniProt Q9NZQ7). Kind of test: PD-L1 internalization (FACS, PD-L1/CHO-K1 cells). In kind it is cell-based. The settings on record: % activation of PD-L1 internalization = 1 − PD-L1 signal; 17 hours incubation. In a few lines: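 PD-L1/CHO-K1 cells treated 17 h at 37 °C with compound (0.2% DMSO final), then surface PD-L1 stained with PE anti-CD274 and read by flow cytometry. Signal normalized to vehicle (100%) and unstained control (0%); internalization = 1 − normalized PD-L1 signal.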

The target in test [2] is extracellular domains of PD-L1 (Homo sapiens (Human), UniProt Q9NZQ7). The test can be described thus: PD-L1 dimerization (biochemical protein-protein interaction assay). The settings on record: PDL1-Eu and PDL1-A2, 25° C., 120 min. The protocol: Compounds were tested in biochemical protein-protein interaction assays to determine if they can specifically dimerize the extracellular domains of PD-L1. • (1) Dilute cpd 1:3 in succession in DMSO for each column for 10±0 pts (refer to dilution plate map) • (2) Transfer 0.2 μL cpds solution in each row to 384 assay plate using Echo, each column containing 2 replicates (refer to assay plate map). • (3) Add 20 μL prepared mixture include PDL1-Eu and PDL1-A2 solution to assay plate, centrifuge at 1000 rpm for 1 min. • (4) Incubate at 25° C. for 120 min. • (5) Read fluorescence signal on Envision 2104 plate reader. • (6) Read the Ratio (665 nm/615 nm) signal on Envision. • (7) Analyze the raw data using the equation (V. Data analysis)
Chain of extracellular domains of PD-L1 (Q9NZQ7 19-238): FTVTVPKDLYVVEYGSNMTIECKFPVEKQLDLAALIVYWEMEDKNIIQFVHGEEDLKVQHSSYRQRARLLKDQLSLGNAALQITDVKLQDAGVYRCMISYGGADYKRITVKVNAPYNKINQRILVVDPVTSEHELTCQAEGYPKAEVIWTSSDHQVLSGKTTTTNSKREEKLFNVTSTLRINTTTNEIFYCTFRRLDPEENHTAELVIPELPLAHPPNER

Chain of PD-L1/CHO-K1 cells (Q9NZQ7 19-290): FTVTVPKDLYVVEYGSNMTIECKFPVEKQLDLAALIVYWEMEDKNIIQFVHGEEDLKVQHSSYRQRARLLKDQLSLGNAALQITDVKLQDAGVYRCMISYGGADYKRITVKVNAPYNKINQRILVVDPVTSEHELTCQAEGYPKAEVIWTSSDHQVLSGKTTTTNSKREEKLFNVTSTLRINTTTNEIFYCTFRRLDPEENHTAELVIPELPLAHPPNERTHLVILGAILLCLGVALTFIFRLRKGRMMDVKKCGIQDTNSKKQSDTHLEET

Regarding `O=C(O)[C@H](CO)NCCN1C(=O)COc2cc(-c3cccc(-c4cccc(-c5ccc6c(c5)OCC(=O)N6CCN[C@@H](CO)C(=O)O)c4Cl)c3Cl)ccc21` [Compound 465], in test [1], the Internalization was 67.00%. This compound gave an EC50 in test [2] of 0.0779 µM.
For the compound `O=C1COc2cc(-c3cccc(-c4cccc(-c5ccc6c(c5)OCC(=O)N6C[C@H]5CCCN5)c4Cl)c3Cl)ccc2N1C[C@H]1CCCN1` [Compound 529], the Internalization in test [1] is recorded as 98.10%.

What is called EC50 is the concentration giving half of the maximal effect. The low end stands for a more potent agent, the high end for a less potent agent.

Values taken from patent US20250340529A1, “Heterocyclic Compounds as Immunomodulators of PD-L1 Interactions” (Ascletis BioScience Co., Ltd, priority 2021, published 2025).
